In ChEMBL document CHEMBL5465560, “Selectivity Literature for EUbOPEN Chemogenomic Library” (2024):

Experiments:
[1] = biological target: T1, Serine/threonine-protein kinase TNNI3K (Homo sapiens) (UniProt Q59H18); assay: Selectivity interaction (KinomeScan (DiscoverX)) EUB0000229b TNNI3K; settings: at 10 µM
T1 sequence (whole entry): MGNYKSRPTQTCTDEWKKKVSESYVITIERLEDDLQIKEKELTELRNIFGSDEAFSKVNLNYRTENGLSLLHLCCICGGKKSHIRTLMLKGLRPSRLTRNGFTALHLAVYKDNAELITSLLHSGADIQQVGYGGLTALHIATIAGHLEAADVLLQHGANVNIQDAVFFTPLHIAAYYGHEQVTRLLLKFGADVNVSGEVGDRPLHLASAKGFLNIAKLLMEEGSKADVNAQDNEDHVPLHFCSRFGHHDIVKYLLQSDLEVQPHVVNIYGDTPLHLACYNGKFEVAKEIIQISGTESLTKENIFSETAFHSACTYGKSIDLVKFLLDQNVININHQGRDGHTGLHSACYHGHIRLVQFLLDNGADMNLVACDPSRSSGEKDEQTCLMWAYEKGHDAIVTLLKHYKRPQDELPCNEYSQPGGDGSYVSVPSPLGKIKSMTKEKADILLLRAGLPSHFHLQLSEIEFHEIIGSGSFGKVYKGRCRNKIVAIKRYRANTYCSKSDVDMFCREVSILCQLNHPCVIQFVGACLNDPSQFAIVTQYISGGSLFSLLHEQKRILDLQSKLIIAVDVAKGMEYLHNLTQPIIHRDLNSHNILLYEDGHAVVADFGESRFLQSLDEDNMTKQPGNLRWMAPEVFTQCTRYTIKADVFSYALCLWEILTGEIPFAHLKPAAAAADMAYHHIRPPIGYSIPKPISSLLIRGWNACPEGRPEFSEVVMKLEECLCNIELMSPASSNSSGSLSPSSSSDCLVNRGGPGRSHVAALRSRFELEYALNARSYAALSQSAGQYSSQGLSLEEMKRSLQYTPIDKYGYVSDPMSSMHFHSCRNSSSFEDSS

[2] = biological target: T2, Serine/threonine-protein kinase Sgk3 (Homo sapiens) (UniProt Q96BR1); assay: Selectivity interaction (Upstate Kinase Profiler service (Millipore)) EUB0000056c SGK3; settings: at 1 µM
T2 sequence (whole entry): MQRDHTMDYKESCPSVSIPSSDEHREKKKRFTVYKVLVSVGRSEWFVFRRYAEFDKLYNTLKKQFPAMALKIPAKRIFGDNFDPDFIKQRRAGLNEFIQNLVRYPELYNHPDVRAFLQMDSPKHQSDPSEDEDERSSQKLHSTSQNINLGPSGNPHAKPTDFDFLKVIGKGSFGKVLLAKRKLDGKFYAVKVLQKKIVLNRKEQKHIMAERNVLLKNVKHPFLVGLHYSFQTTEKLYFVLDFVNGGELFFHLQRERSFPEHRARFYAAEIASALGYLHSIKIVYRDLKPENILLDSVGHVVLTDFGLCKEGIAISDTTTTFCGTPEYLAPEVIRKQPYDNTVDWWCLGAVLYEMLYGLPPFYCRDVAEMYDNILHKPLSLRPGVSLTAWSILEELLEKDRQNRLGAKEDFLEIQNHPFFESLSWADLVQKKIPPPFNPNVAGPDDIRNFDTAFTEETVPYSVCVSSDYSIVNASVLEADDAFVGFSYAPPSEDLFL

[3] = biological target: Macrophage-stimulating protein receptor (Homo sapiens, UniProt Q04912); assay: Selectivity interaction (Kinase panel (Invitrogen)) EUB0000639a MST1R; settings: at 200 nM
[4] = biological target: Mitogen-activated protein kinase kinase kinase 20 (Homo sapiens) (UniProt Q9NYL2); assay: Selectivity interaction (KinomeScan (DiscoverX)) EUB0000618a MAP3K20; settings: at 10 µM
[5] = biological target: Serine/threonine-protein kinase PAK 3 (Homo sapiens) (UniProt O75914); assay: Selectivity interaction (Kinase screening (Nanosyn)) EUB0000604a PAK3
[6] = biological target: T3, Casein kinase I isoform alpha-like (Homo sapiens) (UniProt Q8N752); assay: Selectivity interaction (KinomeScan (DiscoverX)) EUB0001619a CSNK1A1L; settings: at 1 µM
T3 sequence (whole entry): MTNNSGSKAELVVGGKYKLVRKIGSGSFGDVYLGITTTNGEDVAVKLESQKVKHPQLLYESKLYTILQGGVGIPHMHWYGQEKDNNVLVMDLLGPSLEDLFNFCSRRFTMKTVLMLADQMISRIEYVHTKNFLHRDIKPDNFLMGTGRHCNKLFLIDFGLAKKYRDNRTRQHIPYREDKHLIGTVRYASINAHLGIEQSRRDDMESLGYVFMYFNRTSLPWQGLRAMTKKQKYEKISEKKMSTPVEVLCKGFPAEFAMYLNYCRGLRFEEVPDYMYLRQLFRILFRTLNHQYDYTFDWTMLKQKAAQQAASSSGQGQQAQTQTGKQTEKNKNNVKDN

[7] = system: T4, Receptor-type tyrosine-protein kinase FLT3 (Homo sapiens), P36888 [R834Q]; assay: Selectivity interaction (KinomeScan (DiscoverX)) EUB0001619a FLT3; settings: at 1 µM
T4 sequence (whole entry): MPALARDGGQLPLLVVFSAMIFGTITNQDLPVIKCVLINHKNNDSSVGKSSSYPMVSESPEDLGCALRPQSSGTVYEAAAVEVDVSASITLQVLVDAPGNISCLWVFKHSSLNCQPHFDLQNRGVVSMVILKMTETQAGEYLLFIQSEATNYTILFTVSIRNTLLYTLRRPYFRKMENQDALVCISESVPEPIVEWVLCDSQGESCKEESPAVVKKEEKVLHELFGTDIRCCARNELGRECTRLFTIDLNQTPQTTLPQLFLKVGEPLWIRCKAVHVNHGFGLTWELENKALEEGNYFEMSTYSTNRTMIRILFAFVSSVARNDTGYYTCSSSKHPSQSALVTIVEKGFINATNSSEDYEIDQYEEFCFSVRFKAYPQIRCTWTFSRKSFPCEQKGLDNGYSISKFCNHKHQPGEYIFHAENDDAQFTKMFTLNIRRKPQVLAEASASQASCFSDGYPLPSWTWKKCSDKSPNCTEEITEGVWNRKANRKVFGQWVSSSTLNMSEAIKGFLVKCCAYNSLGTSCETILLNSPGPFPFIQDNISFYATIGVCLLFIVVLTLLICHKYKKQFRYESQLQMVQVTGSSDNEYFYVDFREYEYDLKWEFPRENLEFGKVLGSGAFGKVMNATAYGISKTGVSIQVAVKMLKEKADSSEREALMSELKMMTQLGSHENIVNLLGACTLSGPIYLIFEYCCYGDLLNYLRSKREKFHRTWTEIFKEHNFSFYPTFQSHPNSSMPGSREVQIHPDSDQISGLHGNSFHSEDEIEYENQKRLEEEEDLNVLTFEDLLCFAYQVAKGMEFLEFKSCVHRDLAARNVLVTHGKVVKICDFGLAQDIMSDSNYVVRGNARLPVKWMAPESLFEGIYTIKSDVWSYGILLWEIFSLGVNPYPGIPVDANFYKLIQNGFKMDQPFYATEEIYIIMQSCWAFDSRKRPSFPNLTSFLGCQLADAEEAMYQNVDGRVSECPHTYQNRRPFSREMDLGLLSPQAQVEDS

Sequence of Mitogen-activated protein kinase kinase kinase 20 (Homo sapiens) (Q9NYL2 2-800 limits assumed): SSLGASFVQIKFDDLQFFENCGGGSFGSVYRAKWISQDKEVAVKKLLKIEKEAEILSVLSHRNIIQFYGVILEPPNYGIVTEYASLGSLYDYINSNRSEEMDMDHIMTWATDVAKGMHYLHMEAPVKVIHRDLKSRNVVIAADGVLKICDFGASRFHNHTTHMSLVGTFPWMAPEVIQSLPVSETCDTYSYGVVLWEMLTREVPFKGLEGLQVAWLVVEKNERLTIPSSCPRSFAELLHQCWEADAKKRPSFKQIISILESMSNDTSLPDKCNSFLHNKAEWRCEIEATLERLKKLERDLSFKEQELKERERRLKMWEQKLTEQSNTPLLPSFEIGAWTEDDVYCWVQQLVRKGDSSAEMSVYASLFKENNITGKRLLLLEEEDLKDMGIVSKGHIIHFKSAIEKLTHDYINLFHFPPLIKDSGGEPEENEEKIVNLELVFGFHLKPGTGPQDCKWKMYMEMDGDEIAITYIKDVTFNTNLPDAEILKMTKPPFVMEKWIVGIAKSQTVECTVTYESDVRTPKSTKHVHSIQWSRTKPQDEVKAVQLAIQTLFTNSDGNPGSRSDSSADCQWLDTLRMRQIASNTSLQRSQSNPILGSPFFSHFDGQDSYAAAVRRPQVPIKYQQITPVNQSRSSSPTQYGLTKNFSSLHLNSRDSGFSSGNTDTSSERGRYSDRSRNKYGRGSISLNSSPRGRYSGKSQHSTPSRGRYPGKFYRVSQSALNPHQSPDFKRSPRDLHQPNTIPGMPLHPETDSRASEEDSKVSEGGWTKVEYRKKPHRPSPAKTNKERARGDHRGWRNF
Sequence of Serine/threonine-protein kinase PAK 3 (Homo sapiens) (O75914 whole entry, looked up, canonical isoform): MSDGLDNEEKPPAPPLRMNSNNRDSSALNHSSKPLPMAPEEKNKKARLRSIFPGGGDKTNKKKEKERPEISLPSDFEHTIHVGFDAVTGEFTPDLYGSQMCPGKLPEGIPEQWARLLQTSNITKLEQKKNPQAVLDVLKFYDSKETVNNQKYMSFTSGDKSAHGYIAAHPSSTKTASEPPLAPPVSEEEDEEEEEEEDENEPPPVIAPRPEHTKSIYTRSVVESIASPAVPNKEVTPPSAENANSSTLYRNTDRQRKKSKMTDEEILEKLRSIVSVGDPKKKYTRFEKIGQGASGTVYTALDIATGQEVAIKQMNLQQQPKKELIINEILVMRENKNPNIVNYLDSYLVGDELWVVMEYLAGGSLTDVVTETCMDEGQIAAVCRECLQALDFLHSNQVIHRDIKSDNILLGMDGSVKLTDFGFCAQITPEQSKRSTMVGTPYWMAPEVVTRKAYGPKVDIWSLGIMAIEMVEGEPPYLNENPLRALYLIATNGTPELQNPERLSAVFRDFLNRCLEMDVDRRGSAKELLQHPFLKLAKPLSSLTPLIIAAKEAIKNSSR
Sequence of Macrophage-stimulating protein receptor (Q04912 25-304 limits assumed): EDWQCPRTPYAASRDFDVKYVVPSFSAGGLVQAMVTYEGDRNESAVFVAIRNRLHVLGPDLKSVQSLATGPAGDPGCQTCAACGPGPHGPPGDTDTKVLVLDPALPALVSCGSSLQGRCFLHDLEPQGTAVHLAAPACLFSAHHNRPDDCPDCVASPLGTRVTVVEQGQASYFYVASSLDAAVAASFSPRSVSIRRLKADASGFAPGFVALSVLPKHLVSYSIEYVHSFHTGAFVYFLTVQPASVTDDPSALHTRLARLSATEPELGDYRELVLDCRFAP
Sequence of Macrophage-stimulating protein receptor (Q04912 310-1400 limits assumed): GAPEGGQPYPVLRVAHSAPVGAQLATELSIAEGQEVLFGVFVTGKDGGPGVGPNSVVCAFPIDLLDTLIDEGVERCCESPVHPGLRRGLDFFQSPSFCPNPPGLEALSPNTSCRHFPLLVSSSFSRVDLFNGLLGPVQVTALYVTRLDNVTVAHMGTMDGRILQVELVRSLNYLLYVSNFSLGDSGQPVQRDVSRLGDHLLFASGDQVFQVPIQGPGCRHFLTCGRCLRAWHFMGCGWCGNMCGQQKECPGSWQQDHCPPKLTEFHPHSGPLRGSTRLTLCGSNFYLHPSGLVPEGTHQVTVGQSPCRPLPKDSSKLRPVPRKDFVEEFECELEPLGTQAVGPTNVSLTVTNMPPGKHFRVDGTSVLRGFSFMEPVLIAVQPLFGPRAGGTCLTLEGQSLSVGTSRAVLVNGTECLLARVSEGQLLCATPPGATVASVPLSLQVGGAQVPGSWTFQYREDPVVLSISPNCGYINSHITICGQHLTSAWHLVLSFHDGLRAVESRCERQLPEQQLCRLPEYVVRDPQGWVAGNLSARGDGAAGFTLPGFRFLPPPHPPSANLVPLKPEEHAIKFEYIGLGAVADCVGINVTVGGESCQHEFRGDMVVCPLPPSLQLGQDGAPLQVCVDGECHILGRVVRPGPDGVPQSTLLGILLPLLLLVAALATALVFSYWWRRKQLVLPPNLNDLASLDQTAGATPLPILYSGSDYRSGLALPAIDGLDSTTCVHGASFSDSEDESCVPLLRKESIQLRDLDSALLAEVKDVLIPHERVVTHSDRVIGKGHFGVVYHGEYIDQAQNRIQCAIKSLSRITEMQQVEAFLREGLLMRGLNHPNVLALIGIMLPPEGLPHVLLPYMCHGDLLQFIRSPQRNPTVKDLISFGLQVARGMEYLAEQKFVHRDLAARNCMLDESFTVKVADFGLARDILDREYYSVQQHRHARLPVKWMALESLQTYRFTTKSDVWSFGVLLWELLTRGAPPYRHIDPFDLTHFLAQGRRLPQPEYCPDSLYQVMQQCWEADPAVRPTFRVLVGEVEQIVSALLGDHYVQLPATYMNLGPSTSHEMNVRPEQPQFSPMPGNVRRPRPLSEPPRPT

**Q.** With `COc1cc(N(C)c2ccnc3ccc(C(F)(F)F)cc23)cc(OC)c1OC` as the molecule, how does the % binding [1] read?
**A.** The % binding was 90%.

**Q.** Which % of inhibition [2] does the source give for `Cc1ccc(-c2ccc3c(ccc4sc5c(c43)NC[C@@H](C)NC5=O)n2)cn1` here?
**A.** Its % of inhibition is -1%.

**Q.** `CC[C@@H]1[C@H](F)C(=O)N[C@@H]1COc1nccc2cc(C(N)=O)c(OC)cc12` [ZIMLOVISERTIB] was tested. Which % of inhibition [3] did it give?
**A.** The % of inhibition was 12.6%.

**Q.** `O[C@H]1CC[C@H](Nc2ncc3nc(Nc4c(F)cc(F)cc4F)n([C@H]4CCOC4)c3n2)CC1` was tested. Which % of control [4] did it give?
**A.** The % of control was 100%.

**Q.** `Cc1cnc(Nc2ccc(F)cc2Cl)nc1-c1c[nH]c(C(=O)N[C@H](CO)c2cccc(Cl)c2)c1` was tested. Which % of inhibition [5] did it give?
**A.** The % of inhibition was 3%.

**Q.** `N#Cc1cccc(-c2c[nH]c3ncnc(N4CCOCC4)c23)c1` was tested. Which % of control [6] did it give?
**A.** The % of control was 96%.

**Q.** And the % of control [7]?
**A.** The % of control was 93%.
